These results are taken from patent publication US10196357B2, “Biaryl compositions and methods for modulating a kinase cascade” (Athenex, Inc., priority 2007, dated 2019).

Data set [1] in a line: noise-induced hearing loss. The format is in vivo, Chinchillas. Conditions: chinchilla ears treated on round window, 4 kHz band noise 105 dB SPL 4 h, days 1, 7, 21; relative to control ears. Here is the method:
Chinchillas (N=6) were used in studies of noise-induced hearing loss. The animals' hearing sensitivity was measured using standard electrophysical techniques before the experimental manipulation. […] Animals were anesthetized, the auditory bullae were opened, and the left and right cochleas were visualized. The round window leading to the scala tympani of the cochlea was used as the access point for drug application. Animals were treated with KX1-004, KX1-141, KX1-329 or KX2-328 (a non-ATP competitive inhibitor from AstraZeneca, KX2-238), emulsified in DMSO, in 1000 mM of saline solution, which was placed on the round window of one ear. KX1-004:
A control solution of 3 mM DMSO in 1000 mM of saline solution was placed on the round window of the other ear. The solution was allowed to set on the round window for 30 minutes, then the auditory bullae were closed. […] Following the noise exposure, the animals' hearing was tested at day 1, day 7, and day 21 to determine evoked potential threshold shifts. Permanent threshold shift was assessed at day 21.
FIGS. 10-12 show the average threshold shifts for animals treated with KX1-004, KX1-141, KX1-329 or KX2-328.

A short description of data set [2]: cisplatin-induced hearing loss. The format is in vivo. Conditions: guinea pigs, subcutaneous treatment prior to cisplatin. The protocol:
The effects of high level noise and ototoxic drugs, such as cisplatin or the class of aminoglycosides, share several common features in the inner ear. First, the noise and/or drugs alter the free radical/antioxidant levels in the cochlea (inner ear). […] Guinea pigs (N=7) were used in studies of cisplatin-induced hearing loss. The animals' hearing sensitivity was measured using standard electrophysical techniques before the experimental manipulation. […] Animals were anesthetized and treated with cisplatin. Subsequently, the animals' hearing was tested to determine evoked potential threshold shifts.
KX1 is CH65. Animals were treated subcutaneously with KX1-004 prior to the cisplatin-induced hearing loss.

For another data set, the system named is HT29 cell line. Nature of the data set: BrdU cell growth inhibition, HT29. The format is cell-based, human. As to conditions: Homo sapiens; for GI50: HT-29, HT29 (Colon) cells, read-out: GI50; for activity at 0.05 µM / activity at 0.5 µM / activity at 5 µM: HT-29, read-out: HT-29 Growth, % of Control Mean, n = 3; for activity at 0.05 µM: 50 nM; for activity at 0.5 µM: 500 nM. In short, it runs like this:
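HT29 colon carcinoma cells treated with compounds diluted from 20 mM DMSO stocks into DMEM/10% FBS. Proliferation read as colorimetric BrdU incorporation ELISA; GI calculated relative to untreated cells at time 0 and control cells at day n, with GI50 extrapolated. Net cell loss below time-0 level scored as cytotoxicity.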

In the next data set the test system is c-Src 3T3 cells. Nature of the data set: BrdU cell growth inhibition, c-Src 3T3. The format is cell-based, mouse. As to conditions: Mus musculus; for activity at 0.1 µM / activity at 1 µM / activity at 10 µM: NIH3T3, read-out: c-Src 3T3 Growth, % of Control Mean, n = 3; for activity at 0.1 µM: 100 nM; for GI50: c-Src 3T3 (c-Src527F/NIH3T3) cells, read-out: GI50. In a few lines: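 c-Src 3T3 cells on poly-D-lysine plates in DMEM with 2% FBS, L-glutamine, pyruvate and 10 mM HEPES. Compounds came from 20 mM DMSO stocks diluted in DMEM/10% FBS. Proliferation was read by colorimetric BrdU-incorporation ELISA, and GI50 was extrapolated from growth relative to time-zero and untreated controls.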

For data set [3], the system named is colon tumor cell line KM 12. Nature of the data set: tumor growth inhibition, KM12. The format is cell-based. Conditions: Homo sapiens; KM12 cells. The protocol: (§1) These GI50's were determined using the standard tumor growth inhibition assays, similar to that described in detail for the HT29 cell line above, and the following cell lines: colon tumor cell lines KM 12, lung cancer cell line H460 and lung cancer cell line A549 (all are NCI standard tumor cell lines).

The subject of data set [4] is lung cancer cell line H460. Nature of the data set: tumor growth inhibition, H460. As to conditions: Homo sapiens, NCI-H460; H460 cells. The format is cell-based. The protocol:
as §1

In data set [5] the test system is lung cancer cell line A549. Nature of the data set: tumor growth inhibition, A549. As to conditions: Homo sapiens. The format is cell-based, Human. From the text: Growth Inhibition. […] T1 values≤T0 values were designated as T, cytotoxicity.
The test system of another data set is 769-P. Nature of the data set: renal tumor cell growth inhibition, 769-P. The format is cell-based, Human. Conditions: Homo sapiens. The protocol: (§2) These GI50s were determined using standard tumor growth inhibition assays, similar to those described in detail in this Example 7.
The test system of the next data set is 786-O. Nature of the data set: renal tumor cell growth inhibition, 786-O. The format is cell-based, Human. Conditions: Homo sapiens, 786-0, renal cell adenocarcinoma. Here is the method: as §2
The subject of the next data set is Caki-2. Nature of the data set: renal tumor cell growth inhibition, Caki-2. The format is cell-based, Human. As to conditions: Homo sapiens; Caki-2, clear cell carcinoma. Here is the method:
as §2

In a further data set the test system is ACHN. Nature of the data set: renal tumor cell growth inhibition, ACHN. Conditions: Homo sapiens, renal cell adenocarcinoma. The format is cell-based, Human. The protocol: as §2
For a further data set, the system named is HuH7. Nature of the data set: MTT growth inhibition, HuH7. The format is cell-based, human. Conditions: HuH7, 8.0×10^3 cells/wells, […] FBS @ 78 Hr. Here is the method: (§3) Samples of the test compounds were formulated in 100% DMSO to obtain 20 mM stock solutions; stored @ 4° C. The IC50s and IC80s were determined as described below. Huh7, WRL-68, PLC/PRF/5, Hep 3B, and Hep G2 human cancer lines were routinely cultured and maintained in a basal medium containing 2% FBS @ 37° C., 5% CO2. […] The assay medium was basal medium/1.5% FBS. Cells were cultured overnight in 96-well plates at 37° C., 5% CO2 prior to KX2-391. MSA and Dasatinib addition. […] 10 μL of 20× dilutions were added to the appropriate wells (n=3) containing 190 μL cancer cell line; 6561 nM to 0.012 nM range of final concentrations. Vehicle control contained cells, no sample. Medium control contained cells, no sample, 0.03% DMSO (highest DMSO concentration present in samples). […] On day 3, 10 μL MTT (5 mg/mL) were added to each well. Cells were incubated in the presence of MTT for 4 hours @ 37° C., 5% CO2. […] Cells were then incubated overnight @ 37°, 5% CO2. OD570 measurements were taken using BioTek Synergy HT multiplatform microplate reader. Growth inhibition curves IC50s and IC80s were determined using GraphPad Prism 5 statistical software.

The test system of a further data set is WRL-68. Nature of the data set: MTT growth inhibition, WRL-68. As to conditions: WRL-68, 8.0×10^3 cells/wells, […] FBS @ 78 Hr. The format is cell-based, human. The protocol:
(§4) Samples of the test compounds were formulated in 100% DMSO to obtain 20 mM stock solutions; stored @ 4° C. The IC50s and IC80s were determined as described below. Huh7, WRL-68, PLC/PRF/5, Hep 3B, and Hep G2 human cancer lines were routinely cultured and maintained in a basal medium containing 2% FBS @ 37° C., 5% CO2. […] Vehicle control contained cells, no sample. Medium control contained cells, no sample, 0.03% DMSO (highest DMSO concentration present in samples). […] On day 3, 10 μL MTT (5 mg/mL) were added to each well. Cells were incubated in the presence of MTT for 4 hours @ 37° C., 5% CO2. […] Cells were then incubated overnight @ 37°, 5% CO2. OD570 measurements were taken using BioTek Synergy HT multiplatform microplate reader. Growth inhibition curves IC50s and IC80s were determined using GraphPad Prism 5 statistical software.

In a further data set the test system is PLC/PRF/5. Nature of the data set: MTT growth inhibition, PLC/PRF/5. The format is cell-based, human. As to conditions: PLC/PRF/5, 8.0×10^3 cells/wells, […] FBS @ 78 Hr. The protocol:
as §4

The test system of the next data set is Hep 3B. Nature of the data set: MTT growth inhibition, Hep 3B. The format is cell-based, human. Conditions: Hep 3B, 8.0×10^3 cells/wells, […] FBS @ 78 Hr. The protocol:
as §4

The next data set deals with Hep G2. Nature of the data set: MTT growth inhibition, Hep G2. As to conditions: Hep G2, 8.0×10^3 cells/wells, […] FBS @ 78 Hr. The format is cell-based, human. Here is the method:
as §3

The test system of data set [6] is wild-type aywl strain of HBV. Nature of the data set: HBV primary assay (HepG2-2.2.15 antiviral assay). The format is cell-based. As to conditions: Test Concentration 10 μM. The protocol:
The HBV primary assay developed was conducted similarly to that described by Korba et al., (Antiviral Res. 15: 217-228 (1991) and Antiviral Res. 19: 55-70 (1992)) with the exception that viral DNA detection and quantification have been improved and simplified (Korba et al., Antiviral Res. 19: 55-70 (1992)).
Compound 38 (KX2-377), Compound 136 (KX2-393), and Compound 137 (KX2-394) were evaluated for potential anti-HBV activity using a single high-test concentration of compounds in the standardized HepG2-2.2.15 antiviral assay. The HepG2-2.2.15 is a stable cell line producing high levels of the wild-type aywl strain of HBV. Briefly, HepG2-2.2.15 cells were plated in 96-well plates. Only the interior wells were utilized to reduce “edge effects” observed during cell culture; the exterior wells are filled with complete medium to help minimize sample evaporation. On the following day, the confluent monolayer of HepG2-2.2.15 cells was washed and the medium is replaced with complete medium containing test concentrations of a test article in triplicate. 3TC was used as the positive control, while media alone was added to cells as the untreated control. Three days later the culture medium was replaced with fresh medium containing the appropriately diluted drug. Six days following the initial administration of the test compound, the cell culture supernatant was collected, treated with pronase and DNAse and then used in a real-time quantitative TaqMan PCR assay for direct measurement of HBV DNA copies using an ABI Prism 7900 sequence detection system (Applied Biosystems, Foster City, Calif.).
(§5) The antiviral activity of each test compound was calculated by comparing its HBV DNA copies against that of the untreated control cells (100%) to derive percent inhibition level. After removing the supernatant, the remaining cells were subject to CellTiter 96 Aqueous One (Promega, Madison, Wis.) solution cell proliferation assay (MTS-based) to measure cell viability. Cytotoxicity of the compound was determined by comparing its cell viability with that of the untreated cell control to derive percentage of the cell control.

The next data set concerns HepG2-2.2.15 cells. Nature of the data set: cytotoxicity in HBV primary assay (MTS). The format is cell-based. Conditions: Test Concentration 10 μM. Here is the method:
as §5

Usually GI50 stands for the concentration at which growth is held to half of that of the control. By melting point is commonly meant the temperature, or range, at which the solid turns liquid. Usually IC50 stands for the concentration at which inhibition is half-maximal. For orientation: IC80 means the concentration at which the effect reaches the 80% level.

As for KX1-004, in data set [1], the “average dB threshold shifts” value was “lower”. Moreover, the “protection against cisplatin-induced hearing loss” value in data set [2] was “protected against ciplatin-induced hearing loss”.
The compound `O=C(Cc1ccc(-c2ccccc2)cc1)NCc1cccc(O)c1` [KX1-136, N(3-hydroxy-benzyl)-4-biphenylacetamide] returned a melting point of 169 to 170 °C. In the data set on HT29 cell line, the GI50 was determined as 484 nM, the activity at 0.05 µM was 83.1%, the activity at 0.5 µM was under 0% and the activity at 5 µM is under 0%. Further, in the data set on c-Src 3T3 cells, the activity at 0.1 µM is 46.3%, the activity at 1 µM is under 0%, the activity at 10 µM was under 0% and the GI50 worked out at 53 nM. The same compound yielded a GI50 in [3] of 105 nM. The same compound had a GI50 in data set [4] of 280 nM. The compound also displayed a GI50 in data set [5] (A549 (Lung) cells) of 330 nM.
Consider `CN1CCN(CCOc2ccc(-c3ccc(CC(=O)NCc4cccc(F)c4)cc3)c(F)c2)CC1` [KX2-402], for which the GI50 in the data set on 769-P was 8.4 nM; in the data set on 786-O, 57.7 nM; in the data set on Caki-2, 5 nM; in the data set on ACHN it was 6.9 nM.
As for `O=C(Cc1ccc(-c2ccc(OCCN3CCOCC3)cc2)cn1)NCc1ccccc1` [KX2-391-MSA], the IC50 in the data set on HuH7 came out at 9 nM; in the data set on WRL-68 it was 15 nM; in the data set with PLC/PRF/5 it was 13 nM; in the data set on Hep 3B it was 26 nM; with Hep G2, 60 nM. The IC80 worked out at 23 nM in the data set on HuH7; 25 nM with WRL-68; 24 nM in the data set with PLC/PRF/5; 88 nM in the data set with Hep 3B; 3660 nM in the data set with Hep G2.
`Cl.Cl.O=C(Cc1ccc(-c2ccc(OCCN3CCOCC3)cc2)cn1)NCc1ccccc1` [KXO1:2HCl]: in [6], the “Antiviral Activity Percent inhibition of cell control” value stood at 48.2% and the Interpretation entry was “Cytotoxic”. Moreover, in the data set with HepG2-2.2.15 cells, the “Cytotoxicity Percent of cell control” value turned out to be 51.3%.
Turning to `O=C(Cc1ccc(-c2ccccc2)cc1)NCc1cccc(F)c1` [KX1-305, N(3-fluoro-benzyl)-4-biphenylacetamide], the melting point lay within 170 to 172 °C. In the data set with HT29 cell line, the GI50 stood at 877 nM, the activity at 0.05 µM was found to be 108%, the activity at 0.5 µM is under 0% and the activity at 5 µM was under 0%. For the same compound, in the data set with c-Src 3T3 cells, the activity at 0.1 µM turned out to be 35%, the activity at 1 µM is under 0%, the activity at 10 µM is under 0% and the GI50 was 349 nM. The same compound displayed a GI50 in data set [3] of 410 nM. For the same compound, the GI50 in data set [4] turned out to be 890 nM. Besides, the GI50 in data set [5] (A549 cells) worked out at 1030 nM.
